Patent US11352382B2, “Mito-lonidamine, compositions and methods of use” (THE MEDICAL COLLEGE OF WISCONSIN, INC., priority 2018, dated 2022)

Legend:
[1] = tested on: Pancreatic cancer cells; assay: Anti-proliferative effects in pancreatic cancer cells (number of cells over time); format: cell-based, human; conditions: Pancreatic cancer cell; in vitro; b60 words: cancer cells (human pancreatic cancer, lung cancer and brain metastasis); read-out: IC50, inhibiting the proliferation of cancer cells
Protocol: Pancreatic cancer cells were treated with either LND or Mito-LND at varying concentrations and the number of cells was assayed over time.

[2] = tested on: mitochondrial complexes I and II; assay: Inhibition of mitochondrial complexes I and II, stated jointly; format: cell-based, human
From the text: LON and Mito-LON inhibit mitochondrial complex I activity. Mito-LON inhibited cellular respiration (oxygen consumption rate, OCR) at >100-fold lower concentration than LON in intact lung cancer cells (FIG. 9). Both basal respiration and the response to mitochondrial stressors (oligomycin, dinitrophenol) were diminished by Mito-LON (not shown). To investigate the mechanism of mitochondrial inhibition, we measured the activity of mitochondrial complexes in H2030BrM3 cells (NSCLC cell line). The cell membrane was permeabilized, and OCR was measured upon addition of substrates and inhibitors of mitochondrial complexes I-IV (FIG. 9A). These studies established the optimal use of permeabilized cells for complex activity assays.^54 Next, cells were pretreated with LON and Mito-LON for 24 h and experiments performed as in FIG. 9A. […] We hypothesize that inhibition of mitochondrial complexes I and II is the predominant mechanism for antiproliferative effects of Mito-LON on lung cancer cells.

[3] = tested on: H2030BrM3 cells; assay: Cell proliferation, IncuCyte Live-Cell Imaging Analyzer (cell confluence); format: cell-based; conditions: Homo sapiens, H2030-BrM3; H2030BrM3 cells, IncuCyte, FIG. 14; read-out: IC50, cell proliferation
Protocol: (§1) In contrast, Mito-LON (1.2-2.7 μM) targets mitochondrial complexes I and II (FIG. 9); its mitochondrial effects are supported by the compartment-selective oxidation of mitochondrial Prx3 (FIG. 13). The anti-proliferative effects of Mito-LON and LON were compared in H2030BrM3 cells.

[4] = tested on: PC9BrM3 and H2030BrM3 brain metastasis lung cancer cell lines; assay: Boyden chamber (transwell) invasion assay; format: cell-based; conditions: Homo sapiens, H2030-BrM3; LON 100 μM alone; read-out: inhibitory effect on invasion when used alone
From the text: Mito-LON inhibits migration and invasion of brain metastatic human lung cancer cells. To investigate the potential of Mito-LON and LON for lung cancer metastasis, we first tested its effects in vitro via the Boyden chamber invasion assay using PC9BrM3 and H2030BrM3 brain metastasis lung cancer cell lines.

[5] = tested on: H2030BrM3 cells; assay: Cellular ROS production, HPLC-based analysis of hydroethidine (HE) oxidation; format: cell-based, human; conditions: 200 μM, H2030BrM3 cells
From the text: Inhibition of mitochondrial respiration results in increased O2^⋅− and other oxidants.

[6] = tested on: HK2; assay: HK2 protein levels and mRNA expression in lung cancer lines; format: cell-based, human
Protocol: as §1
Role of HK2 and additional possible signaling events that contribute to the effects of Mito-LON. […] This could contribute to their effects as many cancers have constitutive ERK activation which promotes survival and proliferation, and ERK1 can play an important role in regulating mitochondrial activity, apoptosis, proliferation and migration. […] AKT is another pro-survival factor that is constitutively activated (phosphorylated) in many cancers.

[7] = tested on: H2030BrM3 orthotopic lung adenocarcinoma in nude mice; assay: Orthotopic lung tumor mouse model; format: in vivo; conditions: 7.5 μmol/kg oral gavage 5 times/wk for 3 wks, nude mice
Protocol: Inhibitory effects of Mito-LON in an orthotopic lung tumor mouse model. We conducted a pilot study using an orthotopic model of lung adenocarcinoma (H2030BrM3 cells) in nude mice. Cells (1×10^6 cells/50 μg of growth factor-reduced Matrigel in 50 μL of RPMI-1640) were injected into the lung. One week after injection, mice were treated with the same dose of LON or Mito-LON (7.5 μmol/kg), or vehicle (corn oil), by oral gavage 5 times/wk for 3 wks.

[8] = patients; cited from earlier work
[9] = at clinically relevant concentrations (<130 μM); cited from earlier work

O=C(O)c1nn(Cc2ccc(Cl)cc2Cl)c2ccccc12 [LON, 1-(2,4-dichlorobenzyl)-1H-indazole-3-carboxylic acid, reference compound]
IC50 [1]: 327 µM
concentration at which effects on complex I and II occur [2]: ca. 400 μM
IC50 ([2]; pretreatment of H2030BrM3 cells, read-out: IC50, inhibition of complex I and II): ~400 µM
IC50 [3]: 140 µM
inhibition at 100 µM [4]: < 10%
intracellular levels of 2-OH-E+ (superoxide-specific product of HE oxidation) [5]: increase
IC50 ([6]; FIG. 17, read-out: IC50, ability to decrease HK2 levels): 100 to 150 µM
HK2 levels ([6]; both lung cancer lines, within 3-6 h): decreased HK2 levels
decrease of HK2 mRNA expression ([6]; not shown): > 80%
efficacy in orthotopic lung tumor model [7]: not effective
typical peak plasma levels [8]: 17 to 127 µM
effectiveness by itself in vitro [9]: only moderately effective
